Among the test systems are Neurospora crassa; Botrytis cinerea; Fusarium culmorum; Fusarium haematococcum; Trichoderma viride; Fusarium oxysporum; Beauveria bassiana; Alternaria brassicicola; Aspergillus fumigatus.
Common to all, as to assay: ≥ marks a high value that may be exact or a test limit, other limits are often not marked, values filed in µg/mL are converted to µM
The subject of test [1] is Trichophyton mentagrophytes.

≈ marks a conversion by molar mass, not a printed value. Bounds are passed on as bounds.

Regarding `CC[C@H](C)[C@H](NC(=O)[C@H](Cc1cnc[nH]1)NC(=O)[C@H](CCC(=O)O)NC(=O)CNC(=O)[C@H](Cc1cnc[nH]1)NC(=O)[C@H](CC(N)=O)NC(=O)[C@H](Cc1ccccc1)NC(=O)[C@@H](NC(=O)[C@H](CCCCN)NC(=O)[C@@H](NC(=O)[C@H](CCC(N)=O)NC(=O)[C@@H](NC(=O)[C@H](Cc1cnc[nH]1)NC(=O)CNC(=O)[C@H](Cc1ccccc1)NC(=O)[C@H](CC(N)=O)NC(=O)[C@@H]1CCCN1C(=O)[C@H](CC(C)C)NC(=O)[C@H](CC(=O)O)NC(=O)[C@H](CCC(=O)O)NC(=O)[C@@H](N)Cc1ccccc1)[C@@H](C)CC)C(C)C)C(C)C)C(=O)N[C@@H](Cc1cnc[nH]1)C(=O)N[C@@H](Cc1cnc[nH]1)C(=O)O` [FEDLPNFGHIQVKVFNHGEHIHH], the minimal inhibitory concentration (MIC) is ≥ 50 µM against Neurospora crassa; ≥ 100 µM with Botrytis cinerea; 12.5 µM (≈ 34.4 µg/mL) in the test on Fusarium culmorum; 6.25 µM (≈ 17.2 µg/mL) in the test with Fusarium haematococcum; 6.25 µM (≈ 17.2 µg/mL) against Trichoderma viride; 12.5 µM (≈ 34.4 µg/mL) in the test on Fusarium oxysporum. The MIC against Beauveria bassiana is ≥ 100 µM; against Alternaria brassicicola it was 6.25 µM (≈ 17.2 µg/mL); in the test on Aspergillus fumigatus, ≥ 100 µM; in test [1] it was ≥ 100 µM.

A word on the MIC: it is the smallest concentration in the dilution series that meets the test's criterion for growth inhibition. Lower therefore signals a more susceptible organism.

(Values after DBAASP.)
